Entries after “also recorded” stand apart in the source; their conditions may differ.
Tests used:
hypoxic cells = details: without the nitrobenzoyl group; cited from earlier work
[1] = tested on: Chinese hamster V79 lung fibroblasts; assay: Radiation survival of hypoxic V79 cells (metabolism-mediated oxygen depletion), clonogenic assay, SER; type: cell-based; details: for modification of hypoxic radiosensitivity: 2.0 mM; for SER: 2.00 mM, hypoxic, 1% surviving fraction level, ± SD
Protocol: (§1) Chinese hamster V79 lung fibroblasts were cultured in F12 medium supplemented with 10% fetal calf serum and antibiotics. […] The assay system was specifically designed to evaluate radiation sensitivity of cells exposed to radiation under both aerobic and hypoxic conditions (Mitchell et al., Radiat. Res., 96, 422-428 (1983); Russo et al., Radiat. Res., 103, 232-239 (1985); and DeGraff et al., Int. J. Radiat. Oncol. Biol. Phys., 16, 1021-1024 (1989)).
(§2) When cultured cells were exposed to DEA/NO in subsequent examples, DEA/NO in F12 medium with 10 mM HEPES buffer, pH 7.0, was used. […] Control cells in subsequent examples were exposed to 0.02N NaOH, instead of DEA/NO.
The induction of hypoxia in dense cell suspensions by metabolism-mediated oxygen depletion was carried out as described by Mitchell et al. (supra) and Phillips et al. (Int. J. Radiat. Oncol. Biol. Phys., 12, 1627-1635 (1986)). Briefly, stock cultures of exponentially growing Chinese hamster V79 lung fibroblasts in 850 cm^2 roller bottles were trypsinized, rinsed with medium, and counted. Samples of 10^8 cells were then placed in 15 ml centrifuge tubes, centrifuged at 1,000 rpm for 5 min at 25° C., and rinsed once with medium or medium containing DEA/NO (final concentrations ranging from 0.1-2.0 mM), nitrite, diethylamine, or DEA/NO that had been allowed to decompose in full medium overnight at 37° C.
The cell suspension was taken up into a 3 ml glass syringe with a 18 gauge spinal needle. Air bubbles were removed, and a 25 gauge needle was fitted onto the syringe. The syringe was rotated by hand at room temperature for 20 min to allow for cellular metabolic oxygen consumption. The syringe was then placed in a lucite block and irradiated. After a given dose of radiation, 1-3 drops of cell suspension were discarded, and 1-2 drops were collected in tubes containing drug-free medium. In this manner an entire hypoxic survival curve for a given treatment condition can be obtained from a single syringe.
(§3) Hypoxic Chinese hamster V79 lung fibroblasts of Example 2 were irradiated at room temperature with 4 MeV photons from a linear accelerator at a dose rate of 1.5 Gy/min. Full electron equilibrium was ensured for all irradiations.
(§4) Following irradiation, the various cell suspensions were pipetted, counted, diluted, and plated for macroscopic colony formation. Each dose determination was plated in triplicate and experiments were repeated a minimum of two times. Plates were incubated for seven days, after which colonies were fixed with methanol/acetic acid (3:1), stained with crystal violet, and counted. Colonies containing >50 cells were scored and graphed as FIGS. 1-3. Error bars in the graphs represent the standard deviation of the mean and are shown when larger than the symbol used to designate a data point. Survival curve data were fitted using a linear quadratic model of Albright (Radiat. Res., 112, 331-340 (1987)), and the survival curves shown in the figures represent the best fit curves for the experimental data points. Sensitizer enhancement ratios (SER) were calculated by dividing the radiation dose for control hypoxic conditions by the radiation dose for various agents under hypoxic conditions at the 1% surviving fraction level.
Radiation survival curves for V79 cells exposed to varying concentrations of DEA/NO and various DEA/NO decomposition products under hypoxic conditions (metabolic hypoxia induction) are shown in FIG. 1A, which is a graph of the surviving fraction versus dose (Gy).

[2] = tested on: Chinese hamster V79 lung fibroblasts; assay: Cytotoxicity of the agents alone to V79 cells, clonogenic assay; details: 2.0 mM
Protocol: as §1, §2
Radiation survival curves for V79 cells exposed to varying concentrations of DEA/NO and various DEA/NO decomposition products under hypoxic conditions (metabolic hypoxia induction) are shown in FIG. 1A, which is a graph of the surviving fraction versus dose (Gy). Lines in FIG. 1A represent control (.circle-solid.) and 0.1 mM (Δ), 0.5 mM (.largecircle.), 1.0 mM (.quadrature.), and 2.0 mM (.box-solid.) DEA/NO. Survival curves were corrected for drug cytotoxicity as appropriate.
DEA/NO (2.0 mM) was allowed to decompose to liberate NO in medium maintained at 37° C. overnight in a flask open to the air for use as an additional control. The medium containing the DEA/NO decomposition products was then used to evaluate possible effects on radiosensitization.

[3] = tested on: Chinese hamster V79 lung fibroblasts; assay: Radiation survival of aerobic V79 cells, clonogenic assay; type: cell-based; details: 2.0 mM
Protocol: as §1, §2, §4

[4] = tested on: Chinese hamster V79 cells; assay: Survival of hypoxic V79 cells after a single radiation dose; type: cell-based; details: vs control cells
Protocol: Chinese hamster V79 cells were exposed to 15 Gy radiation under hypoxic conditions in the absence or presence of 1 mM SPER/NO (H2 N(CH2)3 N[N(O)NO]^- (CH2)4 NH2^+ (CH2)3 NH2).
Chinese hamster V79 cells were exposed to 20 Gy radiation under hypoxic conditions in the absence or presence of 2 mM SNAP.
Chinese hamster V79 cells were exposed to a single 20 Gy dose of radiation in the absence or presence of 2 mM SIN-1 or PAPA/NO. […] The data are consistent with the requirement of SIN-1 for oxygen, unlike the NONOates, which release NO independent of oxygen levels.

[5] = tested on: embryohal ovarian carcinoma (EOC) ascites tumors; assay: Survival of mice with EOC ascites tumors treated with melphalan with or without DEA/NO; type: in vivo, C3H mice
Protocol: Female C3H mice with embryohal ovarian carcinoma (EOC) ascites tumors were generated by intraperitoneal injection of 1.0×10^5 EOC cells at 10 weeks. Eight days later, when ascites were grossly evident, the animals were injected intraperitoneally with phosphate-buffered saline (PBS) as a control, melphalan (6.25 mg/kg), or melphan in combination with DEA/NO (70 mg/kg). Animals were assessed daily for survival.
FIG. 17 is a graph of % survival of animals versus days after treatment showing survival curves for animals treated with melphalan in the presence or absence of DEA/NO compared to control animals. Median survival of the control group was 15 days. Median survival of the group of mice treated with melphalan alone was 20 days, whereas median survival of the group of mice treated with melphalan and DEA/NO was 27 days.

normal tissues = details: clinical radiotherapy trials; cited from earlier work
[6] = tested on: Chinese hamster V79 lung fibroblasts; assay: Radiation survival of hypoxic V79 monolayers gassed with nitrogen and exposed to NO gas; type: cell-based
Protocol: as §3, §4

cells in culture = details: aerobic (~20% oxygen) vs hypoxic (<0.5% oxygen); cited from earlier work
rodent tumors = details: hyperbaric oxygen (100%); cited from earlier work
hypoxic bacterial cells = details: cited from earlier work
lungs = details: NO gas, in vivo; cited from earlier work
[7] = tested on: Chinese hamster V79 fibroblasts; assay: Protection of V79 cells from cisplatin cytotoxicity; type: cell-based; details: 1 mM, 1 hr
Protocol: Chinese hamster V79 fibroblasts were exposed to varying concentrations of cisplatin under aerobic conditions for 1 hr in the presence or absence of 1 mM PAPA/NO, n-propyl-1,3-propane diamine (PPD), or released PAPA/NO under aerobic conditions. Methods used were as described in Examples 2 and 13.

[8] = tested on: Chinese hamster V79 fibroblasts; assay: Chemosensitization of V79 cells to bioreductive agents (mitomycin C, SR 4233); details: hypoxic, 1 hr
[9] = tested on: transplantable murine tumor; details: mouse, in vivo; cited from earlier work

NCCCNCCCCNCCCN [spermine]
sensitizing properties (hypoxic cells): failed to demonstrate any sensitizing properties whatsoever

O=NO [Nitrite, nitrite, reference compound]
modification of hypoxic radiosensitivity [1]: nor did any of these agents significantly modify hypoxic radiosensitivity
SER [1]: 1.0
cytotoxicity of decomposition products alone [2]: Neither nitrite, diethylamine, or decomposed DEA/NO alone resulted in any cytotoxicity
effect on aerobic radiosensitivity [3]: did not significantly alter the aerobic radiosensitivity

CC(=O)N[C@H](C(=O)O)C(C)(C)SN=O [SNAP, S-nitroso-N-acetyl penicillamine, reference compound]
susceptibility of hypoxic cells to radiation ([4]; 2 mM plus 20 Gy, Example 7): significantly more susceptible to radiation than control cells

NCCCNCCCCN(CCCN)/[N+]([O-])=N/O [SPER/NO]
susceptibility of hypoxic cells to radiation ([4]; 1 mM plus 15 Gy): more susceptible to radiation than control cells

N[C@@H](Cc1ccc(N(CCCl)CCCl)cc1)C(=O)O [melphalan]
Overall survival vs control group ([5]; log-rank testing): significantly longer than the control group
Median survival ([5]; melphalan 6.25 mg/kg i.p., with or without DEA/NO 70 mg/kg): 20 days

COCC(O)Cn1ccnc1[N+](=O)[O-] (centres unmarked) [Misonidazole, misonidazole]
toxicity to normal tissues (normal tissues): toxic to normal tissues, causing peripheral neuropathy

O=O [oxygen]
EC50 ([6]; Cricetulus griseus, Fibroblast, hypoxic cell radiosensitization, read-out: k value (concentration required to yield half the maximum effect)): 2500 µg/mL
enhancement of killing of cells in culture with X-rays (factor) (cells in culture): 2-3
hypoxic radiosensitization in rodent tumors (rodent tumors): some degree of hypoxic radiosensitization in rodent tumors

NCCCCNCCCN [spermidine]
sensitizing properties (hypoxic cells): failed to demonstrate any sensitizing properties whatsoever

nitric oxide [NO gas]
SER ([6]; 10^5 ppm NO, hypoxic): 3.2
hypoxic cell radiosensitization ([6]; NO gas vs control / oxygen): potent hypoxic cell radiosensitizer; also recorded: not as efficient as oxygen in hypoxic cell radiosensitization
toxicity in the absence of radiation (hypoxic bacterial cells): nontoxic in the absence of radiation
radiosensitization of hypoxic bacterial cells (hypoxic bacterial cells; ionizing radiation): sensitizes hypoxic bacterial cells to ionizing radiation
damage on administration of high concentrations (lungs): damage to the lungs

CCNCC [Diethylamine, diethylamine, reference compound]
modification of hypoxic radiosensitivity [1]: nor did any of these agents significantly modify hypoxic radiosensitivity
SER [1]: 1.0
cytotoxicity of decomposition products alone [2]: Neither nitrite, diethylamine, or decomposed DEA/NO alone resulted in any cytotoxicity
effect on aerobic radiosensitivity [3]: did not significantly alter the aerobic radiosensitivity

CCCN(CCCN)/[N+]([O-])=N/O [PAPA/NO]
susceptibility of hypoxic cells to radiation ([4]; 2 mM plus 20 Gy, Example 10): much more susceptible to radiation than control cells
protection against aerobic cisplatin-induced cytotoxicity [7]: protected V79 fibroblasts against aerobic cisplatin-induced cytotoxicity
enhancement of hypoxic cytotoxicity of SR 4233 ([8]; 25 μm SR 4233, 1 mM): enhance the hypoxic cytotoxicity of SR 4233
colonies formed when 100,000 cells were plated ([8]; 25 μm SR 4233 plus 1 mM): no colonies were formed

Cl.N=c1c[n+](N2CCOCC2)[n-]o1 [SIN-1, 3-morpholino-sydnonimine hydrochloride, reference compound]
susceptibility of hypoxic cells to radiation ([4]; 2 mM plus 20 Gy, Example 10): not significantly sensitized to radiation as compared to control cells
enhancement of tumor radiation sensitivity [9]: enhances the radiation sensitivity of a transplantable murine tumor

— patent US5650442A (priority 1994, dated 1997)
